The text below walks through data of ChEMBL document CHEMBL1149100, “New 2,4-diamino-5-(2',5'-substituted benzyl)pyrimidines as potential drugs against opportunistic infections of AIDS and other immune disorders. Synthesis and species-dependent antifolate activity” (J Med Chem, 2004).

This test has as its system Mycobacterium avium. The experiment in a line: microbe, parasite or virus in culture.

A value given as a limit tells only on which side of the number the result lay.

For the compound `COc1cc(Cc2cnc(N)nc2N)cc(OC)c1OC` [TRIMETHOPRIM], the MIC is > 64 µg/mL.
